# From PubChem BioAssay (NCI)
#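 Cultured in 96-well plates, cells were exposed to test compound for 48 hours across five concentrations. Abbreviation: GI50, concentration required for 50% inhibition of growth. TGI denotes the concentration required for complete inhibition of growth.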
# Assays:
# Assay in all cases: NCI anticancer screen, dose series, 48 h
# HCT-15 colon = system: HCT-15 colon
# SN12C renal = system: SN12C renal
# EKVX NSCLC = system: EKVX NSCLC
# TK-10 renal = system: TK-10 renal
# LOX IMVI melanoma = system: LOX IMVI melanoma
# MDA-MB-435 = system: MDA-MB-435
# OVCAR-4 ovarian = system: OVCAR-4 ovarian
# MDA-MB-468 breast = system: MDA-MB-468 breast
# DU-145 prostate = system: DU-145 prostate
# UO-31 renal = system: UO-31 renal
# SNB-75 CNS = system: SNB-75 CNS
# NCI/ADR-RES ovarian = system: NCI/ADR-RES ovarian
# OVCAR-5 ovarian = system: OVCAR-5 ovarian
# RPMI-8226 leukemia = system: RPMI-8226 leukemia
# T-47D breast = system: T-47D breast
# CCRF-CEM leukemia = system: CCRF-CEM leukemia
# A498 renal = system: A498 renal
# 786-0 renal = system: 786-0 renal
# SK-MEL-5 melanoma = system: SK-MEL-5 melanoma
# CAKI-1 renal = system: CAKI-1 renal
# SW-620 colon = system: SW-620 colon
# HOP-62 NSCLC = system: HOP-62 NSCLC
# NCI-H23 lung = system: NCI-H23 lung
# MALME-3M melanoma = system: MALME-3M melanoma
# SK-OV-3 ovarian = system: SK-OV-3 ovarian
# MDA-MB-231 breast = system: MDA-MB-231 breast
# OVCAR-3 ovarian = system: OVCAR-3 ovarian
# UACC-257 melanoma = system: UACC-257 melanoma
# KM12 colon = system: KM12 colon
# HS 578T breast = system: HS 578T breast
# SK-MEL-2 melanoma = system: SK-MEL-2 melanoma
# COLO 205 colon = system: COLO 205 colon
# SF-539 CNS = system: SF-539 CNS
# MOLT-4 leukemia = system: MOLT-4 leukemia
# HOP-92 NSCLC = system: HOP-92 NSCLC
# RXF 393 renal = system: RXF 393 renal
# K-562 leukemia = system: K-562 leukemia
# PC-3 prostate = system: PC-3 prostate
# A549 NSCLC = system: A549 NSCLC
# MCF7 breast = system: MCF7 breast
# SNB-19 CNS = system: SNB-19 CNS
# NCI-H522 lung = system: NCI-H522 lung
# M14 melanoma = system: M14 melanoma
# NCI-H460 lung = system: NCI-H460 lung
# BT-549 breast = system: BT-549 breast
# IGROV1 ovarian = system: IGROV1 ovarian
# HCC-2998 colon = system: HCC-2998 colon
# HT29 colon = system: HT29 colon
# U251 CNS = system: U251 CNS
# HL-60(TB) leukemia = system: HL-60(TB) leukemia
# SR leukemia = system: SR leukemia
# SK-MEL-28 melanoma = system: SK-MEL-28 melanoma
# OVCAR-8 ovarian = system: OVCAR-8 ovarian
# SF-295 CNS = system: SF-295 CNS
# ACHN renal = system: ACHN renal
# HCT-116 colon = system: HCT-116 colon
# UACC-62 melanoma = system: UACC-62 melanoma
# SF-268 CNS = system: SF-268 CNS
# NCI-H226 lung = system: NCI-H226 lung
smiles,measurement,setting,value
COc1ccc(CCC2c3c(cc4c(c3OC)OCO4)CCN2C)cc1 (stereo not drawn),GI50,HCT-15 colon,9.8 µM
same,TGI,HCT-15 colon,34.8 µM
same,GI50,SN12C renal,7.05 µM
same,TGI,SN12C renal,37.4 µM
same,GI50,EKVX NSCLC,16.1 µM
same,TGI,EKVX NSCLC,67.7 µM
same,GI50,TK-10 renal,10.6 µM
same,TGI,TK-10 renal,31.8 µM
same,GI50,LOX IMVI melanoma,3.14 µM
same,TGI,LOX IMVI melanoma,12.6 µM
same,GI50,MDA-MB-435,3.78 µM
same,TGI,MDA-MB-435,17.1 µM
same,GI50,OVCAR-4 ovarian,17.2 µM
same,TGI,OVCAR-4 ovarian,99.2 µM
same,GI50,MDA-MB-468 breast,6.81 µM
same,TGI,MDA-MB-468 breast,21.6 µM
same,GI50,DU-145 prostate,20.1 µM
same,TGI,DU-145 prostate,86.2 µM
same,GI50,UO-31 renal,8.73 µM
same,TGI,UO-31 renal,54.1 µM
same,GI50,SNB-75 CNS,13.5 µM
same,TGI,SNB-75 CNS,70.5 µM
same,GI50,NCI/ADR-RES ovarian,9.23 µM
same,TGI,NCI/ADR-RES ovarian,26.2 µM
same,GI50,OVCAR-5 ovarian,5.98 µM
same,TGI,OVCAR-5 ovarian,28.8 µM
same,GI50,RPMI-8226 leukemia,4.05 µM
same,TGI,RPMI-8226 leukemia,27.4 µM
same,GI50,T-47D breast,6.92 µM
same,TGI,T-47D breast,29.6 µM
same,GI50,CCRF-CEM leukemia,11.2 µM
same,TGI,CCRF-CEM leukemia,46.7 µM
same,GI50,A498 renal,18 µM
same,TGI,A498 renal,64.6 µM
same,GI50,786-0 renal,9.15 µM
same,TGI,786-0 renal,24 µM
same,GI50,SK-MEL-5 melanoma,10.4 µM
same,TGI,SK-MEL-5 melanoma,22.2 µM
same,GI50,CAKI-1 renal,9.84 µM
same,TGI,CAKI-1 renal,38.8 µM
same,GI50,SW-620 colon,3.93 µM
same,TGI,SW-620 colon,16.8 µM
same,GI50,HOP-62 NSCLC,7.41 µM
same,TGI,HOP-62 NSCLC,46.3 µM
same,GI50,NCI-H23 lung,6.56 µM
same,TGI,NCI-H23 lung,31.7 µM
same,GI50,MALME-3M melanoma,14.2 µM
same,TGI,MALME-3M melanoma,27.5 µM
same,GI50,SK-OV-3 ovarian,17.3 µM
same,TGI,SK-OV-3 ovarian,43.3 µM
same,GI50,MDA-MB-231 breast,9.13 µM
same,TGI,MDA-MB-231 breast,22.6 µM
same,GI50,OVCAR-3 ovarian,10.9 µM
same,TGI,OVCAR-3 ovarian,29.3 µM
same,GI50,UACC-257 melanoma,13.4 µM
same,TGI,UACC-257 melanoma,28.2 µM
same,GI50,KM12 colon,12.6 µM
same,TGI,KM12 colon,33.2 µM
same,GI50,HS 578T breast,10.4 µM
same,TGI,HS 578T breast,41.8 µM
same,GI50,SK-MEL-2 melanoma,14.6 µM
same,TGI,SK-MEL-2 melanoma,36.7 µM
same,GI50,COLO 205 colon,5.99 µM
same,TGI,COLO 205 colon,21 µM
same,GI50,SF-539 CNS,4.91 µM
same,TGI,SF-539 CNS,16.8 µM
same,GI50,MOLT-4 leukemia,6.39 µM
same,TGI,MOLT-4 leukemia,32.8 µM
same,GI50,HOP-92 NSCLC,5.16 µM
same,TGI,HOP-92 NSCLC,23.4 µM
same,GI50,RXF 393 renal,6.99 µM
same,TGI,RXF 393 renal,30.6 µM
same,GI50,K-562 leukemia,3.94 µM
same,TGI,K-562 leukemia,24.6 µM
same,GI50,PC-3 prostate,9.52 µM
same,TGI,PC-3 prostate,35.1 µM
same,GI50,A549 NSCLC,17 µM
same,TGI,A549 NSCLC,> 100 µM
same,GI50,MCF7 breast,10.4 µM
same,TGI,MCF7 breast,24.3 µM
same,GI50,SNB-19 CNS,15 µM
same,TGI,SNB-19 CNS,> 100 µM
same,GI50,NCI-H522 lung,12.1 µM
same,TGI,NCI-H522 lung,27.1 µM
same,GI50,M14 melanoma,7.17 µM
same,TGI,M14 melanoma,23.2 µM
same,GI50,NCI-H460 lung,4.76 µM
same,TGI,NCI-H460 lung,19.1 µM
same,GI50,BT-549 breast,7.68 µM
same,TGI,BT-549 breast,20.1 µM
same,GI50,IGROV1 ovarian,5.72 µM
same,TGI,IGROV1 ovarian,22.1 µM
same,GI50,HCC-2998 colon,10.7 µM
same,TGI,HCC-2998 colon,25.7 µM
same,GI50,HT29 colon,3.63 µM
same,TGI,HT29 colon,20.9 µM
same,GI50,U251 CNS,13.6 µM
same,TGI,U251 CNS,46.5 µM
same,GI50,HL-60(TB) leukemia,3.01 µM
same,TGI,HL-60(TB) leukemia,18 µM
same,GI50,SR leukemia,3.94 µM
same,TGI,SR leukemia,24 µM
same,GI50,SK-MEL-28 melanoma,10.2 µM
same,TGI,SK-MEL-28 melanoma,22.5 µM
same,GI50,OVCAR-8 ovarian,13.1 µM
same,TGI,OVCAR-8 ovarian,30.5 µM
same,GI50,SF-295 CNS,3.5 µM
same,TGI,SF-295 CNS,17.2 µM
same,GI50,ACHN renal,8.95 µM
same,TGI,ACHN renal,45 µM
same,GI50,HCT-116 colon,3.35 µM
same,TGI,HCT-116 colon,13.8 µM
same,GI50,UACC-62 melanoma,10.6 µM
same,TGI,UACC-62 melanoma,23.2 µM
same,GI50,SF-268 CNS,14.3 µM
same,TGI,SF-268 CNS,> 100 µM
same,GI50,NCI-H226 lung,7.04 µM
same,TGI,NCI-H226 lung,25.6 µM
